According to patent US20240101576A1, “HETEROCYCLIC INHIBITORS OF EGFR AND/OR HER2, FOR USE IN THE TREATMENT OF CANCER” (Scorpion Therapeutics, Inc., priority 2020, published 2024):
pIC50: −log10 of the molar value.

How the values were obtained:
Assay type in all cases: cell-based
[1] = molecular target: T1, EGFR exon 20 ASV Ins V769_D770 (Ba/F3 cells) (Homo sapiens, UniProt P00533, INS769ASV); assay: Inhibitor activity on EGFR-dependent cell growth (CellTiter-Glo, 72 h), Ba/F3 EGFR exon 20 ASV Ins; settings: read-out: BaF3 ASV IC50
T1 construct: expressed in transfected cells; host or cells: Ba/F3 (murine pro-B cells), retroviral transduction, puromycin selection, IL3-independent pool
T1 sequence (P00533 with tags, fused parts or gaps INS769ASV): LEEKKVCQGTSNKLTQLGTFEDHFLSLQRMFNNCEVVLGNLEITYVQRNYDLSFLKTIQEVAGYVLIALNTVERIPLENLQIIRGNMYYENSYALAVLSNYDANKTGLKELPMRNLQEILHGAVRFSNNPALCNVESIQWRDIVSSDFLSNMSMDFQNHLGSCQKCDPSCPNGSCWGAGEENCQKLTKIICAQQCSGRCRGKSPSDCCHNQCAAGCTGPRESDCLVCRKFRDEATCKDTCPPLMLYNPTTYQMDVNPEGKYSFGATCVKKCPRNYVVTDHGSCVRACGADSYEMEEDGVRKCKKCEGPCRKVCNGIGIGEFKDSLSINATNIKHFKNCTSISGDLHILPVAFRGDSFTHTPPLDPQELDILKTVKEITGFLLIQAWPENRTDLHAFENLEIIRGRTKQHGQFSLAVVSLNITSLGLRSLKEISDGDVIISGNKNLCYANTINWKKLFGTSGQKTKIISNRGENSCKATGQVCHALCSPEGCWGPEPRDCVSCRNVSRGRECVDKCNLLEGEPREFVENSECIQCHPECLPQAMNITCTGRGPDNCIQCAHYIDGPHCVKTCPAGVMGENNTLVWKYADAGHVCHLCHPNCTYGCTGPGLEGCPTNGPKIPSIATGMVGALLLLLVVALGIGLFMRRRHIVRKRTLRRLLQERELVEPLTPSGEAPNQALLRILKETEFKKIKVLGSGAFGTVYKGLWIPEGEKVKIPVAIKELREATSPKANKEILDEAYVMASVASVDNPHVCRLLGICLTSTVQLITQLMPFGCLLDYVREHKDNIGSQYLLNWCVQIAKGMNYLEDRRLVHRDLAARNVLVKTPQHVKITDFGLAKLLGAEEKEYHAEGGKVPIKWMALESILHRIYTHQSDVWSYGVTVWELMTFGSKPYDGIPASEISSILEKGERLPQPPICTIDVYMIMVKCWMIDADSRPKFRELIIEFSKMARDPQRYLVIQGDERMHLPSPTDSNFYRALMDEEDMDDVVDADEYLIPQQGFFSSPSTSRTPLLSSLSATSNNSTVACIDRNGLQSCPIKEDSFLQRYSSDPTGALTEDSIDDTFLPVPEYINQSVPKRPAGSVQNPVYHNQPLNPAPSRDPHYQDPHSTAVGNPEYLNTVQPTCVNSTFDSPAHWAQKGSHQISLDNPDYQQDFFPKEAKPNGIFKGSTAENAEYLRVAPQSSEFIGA
Method in brief: (§1)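 IC50s derive from a sigmoidal dose–response fit of CellTiter-Glo signal. The signal was normalised between […]-treated cells and cell-free medium. Ba/F3 mutant-EGFR cells, seeded at 400–800/well depending on the line, had 72 h of exposure to a 10-point, 3-fold compound series.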

[2] = molecular target: T2, EGFR WT (Ba/F3 cells) (Homo sapiens, UniProt P00533); assay: Inhibitor activity on EGFR-dependent cell growth (CellTiter-Glo, 72 h), Ba/F3 EGFR WT; settings: read-out: BaF3 WT IC50
T2 construct: expressed in transfected cells; host or cells: Ba/F3 (murine pro-B cells), retroviral transduction, puromycin selection, maintained with EGF
T2 sequence (P00533 25-1210): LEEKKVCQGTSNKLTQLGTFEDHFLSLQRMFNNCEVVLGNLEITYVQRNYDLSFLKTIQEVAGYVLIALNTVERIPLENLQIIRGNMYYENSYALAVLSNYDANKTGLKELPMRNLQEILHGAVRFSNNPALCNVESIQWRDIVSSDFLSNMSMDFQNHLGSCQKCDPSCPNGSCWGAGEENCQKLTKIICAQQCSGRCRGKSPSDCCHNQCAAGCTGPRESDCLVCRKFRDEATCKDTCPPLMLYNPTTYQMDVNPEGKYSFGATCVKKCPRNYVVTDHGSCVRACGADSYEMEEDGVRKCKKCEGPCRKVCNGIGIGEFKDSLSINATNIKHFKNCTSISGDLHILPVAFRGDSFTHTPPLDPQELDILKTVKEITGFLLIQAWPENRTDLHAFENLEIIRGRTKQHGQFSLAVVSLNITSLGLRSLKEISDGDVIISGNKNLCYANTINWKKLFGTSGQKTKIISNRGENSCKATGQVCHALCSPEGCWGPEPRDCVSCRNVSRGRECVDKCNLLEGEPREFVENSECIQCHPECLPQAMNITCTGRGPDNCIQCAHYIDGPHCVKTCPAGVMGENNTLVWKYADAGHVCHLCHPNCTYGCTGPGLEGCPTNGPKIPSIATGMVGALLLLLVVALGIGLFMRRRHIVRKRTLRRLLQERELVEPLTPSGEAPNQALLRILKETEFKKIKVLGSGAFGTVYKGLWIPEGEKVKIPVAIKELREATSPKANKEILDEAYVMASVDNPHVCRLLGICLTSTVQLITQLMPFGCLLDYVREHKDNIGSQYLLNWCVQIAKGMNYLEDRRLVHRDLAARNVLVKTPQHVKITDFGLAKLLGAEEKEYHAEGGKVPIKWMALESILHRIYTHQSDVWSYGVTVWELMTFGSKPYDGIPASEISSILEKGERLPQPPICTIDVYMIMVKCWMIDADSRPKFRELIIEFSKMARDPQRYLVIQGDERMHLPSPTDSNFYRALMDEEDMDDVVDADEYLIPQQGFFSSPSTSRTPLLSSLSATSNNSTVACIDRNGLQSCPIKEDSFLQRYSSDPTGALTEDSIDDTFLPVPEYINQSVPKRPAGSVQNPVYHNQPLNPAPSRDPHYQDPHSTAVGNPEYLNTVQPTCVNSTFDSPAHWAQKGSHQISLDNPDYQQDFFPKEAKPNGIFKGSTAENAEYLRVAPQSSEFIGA
Method in brief: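 This growth assay used Ba/F3 cells that depend on wild-type EGFR and are kept in EGF without IL3. Compounds were made up as 10 mM DMSO stocks and diluted 3-fold over 10 points. 120 nL went onto 600 cells/well. After 72 hours, 40 μL CellTiter-Glo was added and luminescence read on EnVision after 30 min.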

[3] = molecular target: T3, EGFR L858R (Ba/F3 cells) (Homo sapiens, UniProt P00533, L858R); assay: Inhibitor activity on EGFR-dependent cell growth (CellTiter-Glo, 72 h), Ba/F3 EGFR L858R; settings: read-out: BaF3 L858R IC50
T3 construct: expressed in transfected cells; host or cells: Ba/F3 (murine pro-B cells), retroviral transduction, puromycin selection, IL3-independent pool
Description: (§2) Example A. Inhibitor Activity on EGFR-Dependent Cell Growth
(§3) Cell lines are generated by transducing Ba/F3 cells with retroviruses containing vectors with EGFR WT, EGFR L858R, EGFR exon 19del, EGFR L858R/C797S, EGFR exon 20 NPG Ins D770_N771, EGFR exon 20 ASV Ins V769_D770, EGFR exon 20 SVD Ins D770_N771, or EGFR exon 20 FQEA Ins A763_V764 genes and a puromycin selection marker. Transduced cells are selected with puromycin for 7 days and are then be transferred into culture media without Interleukin 3 (IL3). EGFR WT cells are maintained with supplemental EGF. Surviving cells are confirmed to express EGFR by Western blot and maintained as a pool. The IC50 date were included in Table 6 and Table 7.
(§4) 1.1 Cells are harvested from flask into cell culture medium and the cell number counted.
(§5) 1.2 Cells are diluted with culture medium to the desired density and 40 μL of cell suspension is added into each well of 384-well cell culture plate and the seeding density is 800 (FQEA, exon 19del), 600 (WT, NPG, L858R/C797S), or 400 (ASV, SVD, L858R) cells/well.
(§6) 2 Compound Preparation and Treatment
(§7) 2.1 Test compounds are dissolved to 10 mM in a DMSO stock solution. 45 μL of stock solution is transferred to a 384 polypropylene plate (pp-plate). Perform 3-fold, 10-point dilution via transferring 15 μL compound into 30 μL DMSO using a TECAN (EVO200) liquid handler.
(§8) 2.2 Spin plates at room temperature at 1,000 RPM for 1 minute.
(§9) 2.3 Transfer 120 nL of diluted compound from compound source plate into the cell plate.
(§10) 2.4 After compound treatment for 72 hours, perform CTG detection for compound treatment plates as described in “Detection” section.
(§11) 3.1 Plates are removed from incubators and equilibrated at room temperature for 15 minutes.
(§12) 3.2 Thaw the CellTiter Glo reagents and allow to equilibrate to room temperature before the experiment.
(§13) 3.3 Add 40 μL of CellTiter-Glo reagent into each well (at 1:1 to culture medium). Then place the plates at room temperature for 30 min followed by reading on EnVision.
(§14) 4.1 Inhibition activity is calculated following the formula below:
(§15) % Inhibition=100×(LumHC−LumSample)/(LumHC−LumLC) • where HC is obtained from cells treated with 0.1% DMSO only; and LC is obtained from culture medium only.
(§16) 4.2 2. Calculate the IC50 by fitting the Curve using Xlfit (v5.3.1.3), equation 201.
(§17) Y=Bottom+(Top−Bottom)/(1+10^((Log IC50−X)*HillSlope))

[4] = molecular target: EGFR exon 19del (Ba/F3 cells) (Homo sapiens, UniProt P00533); assay: Inhibitor activity on EGFR-dependent cell growth (CellTiter-Glo, 72 h), Ba/F3 EGFR exon 19del; settings: Ba/F3 EGFR exon 19del cell growth, read-out: BaF3 Del19 IC50
Description: as §2, §3, §4, §5, §6, §7, §8, §9, §10, §11, §12, §13, §14, §15, §16, §17

[5] = molecular target: T4, EGFR exon 20 NPG Ins D770_N771 (Ba/F3 cells) (Homo sapiens, UniProt P00533, INS770NPG); assay: Inhibitor activity on EGFR-dependent cell growth (CellTiter-Glo, 72 h), Ba/F3 EGFR exon 20 NPG Ins; settings: read-out: BaF3 NPG IC50
T4 construct: expressed in transfected cells; host or cells: Ba/F3 (murine pro-B cells), retroviral transduction, puromycin selection, IL3-independent pool
Method in brief: as §1

[6] = molecular target: T5, EGFR exon 20 FQEA Ins A763_V764 (Ba/F3 cells) (Homo sapiens, UniProt P00533, INS763FQEA); assay: Inhibitor activity on EGFR-dependent cell growth (CellTiter-Glo, 72 h), Ba/F3 EGFR exon 20 FQEA Ins; settings: read-out: BaF3 FQEA IC50
T5 construct: expressed in transfected cells; host or cells: Ba/F3 (murine pro-B cells), retroviral transduction, puromycin selection, IL3-independent pool
T5 sequence (P00533 with tags, fused parts or gaps INS763FQEA): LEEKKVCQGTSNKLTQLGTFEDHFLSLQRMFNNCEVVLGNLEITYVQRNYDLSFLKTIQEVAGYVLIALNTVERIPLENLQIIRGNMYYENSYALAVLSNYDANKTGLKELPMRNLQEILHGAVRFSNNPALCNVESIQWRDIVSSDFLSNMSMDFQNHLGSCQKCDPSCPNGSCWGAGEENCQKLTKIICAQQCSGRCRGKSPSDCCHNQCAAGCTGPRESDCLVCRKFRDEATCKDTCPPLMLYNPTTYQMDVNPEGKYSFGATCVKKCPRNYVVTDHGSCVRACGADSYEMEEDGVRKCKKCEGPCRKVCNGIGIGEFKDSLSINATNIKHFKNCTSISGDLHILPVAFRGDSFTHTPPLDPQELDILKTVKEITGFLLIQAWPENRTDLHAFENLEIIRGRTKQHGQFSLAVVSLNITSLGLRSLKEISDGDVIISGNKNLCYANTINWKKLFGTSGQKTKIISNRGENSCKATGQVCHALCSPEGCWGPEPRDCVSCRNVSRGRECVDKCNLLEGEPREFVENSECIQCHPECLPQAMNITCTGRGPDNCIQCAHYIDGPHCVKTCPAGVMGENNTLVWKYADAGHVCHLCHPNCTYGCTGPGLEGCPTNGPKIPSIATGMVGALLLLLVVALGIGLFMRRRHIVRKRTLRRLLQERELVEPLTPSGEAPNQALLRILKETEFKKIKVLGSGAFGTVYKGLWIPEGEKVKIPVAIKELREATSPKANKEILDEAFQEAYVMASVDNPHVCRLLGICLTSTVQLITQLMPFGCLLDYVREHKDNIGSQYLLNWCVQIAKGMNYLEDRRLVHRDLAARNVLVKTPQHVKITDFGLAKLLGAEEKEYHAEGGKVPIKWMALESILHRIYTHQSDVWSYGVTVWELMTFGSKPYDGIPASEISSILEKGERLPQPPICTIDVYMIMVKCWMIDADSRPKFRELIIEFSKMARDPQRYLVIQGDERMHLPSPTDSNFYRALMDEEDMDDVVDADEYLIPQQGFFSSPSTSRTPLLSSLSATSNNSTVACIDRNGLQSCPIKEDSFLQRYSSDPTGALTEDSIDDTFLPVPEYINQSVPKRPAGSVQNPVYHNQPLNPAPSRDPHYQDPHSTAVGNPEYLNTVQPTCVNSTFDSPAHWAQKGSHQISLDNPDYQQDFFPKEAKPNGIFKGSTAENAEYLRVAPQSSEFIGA
Method in brief: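 Ba/F3, retrovirally transduced, puromycin-selected, grown without IL3; cells/well: L858R 400, L858R/C797S 600, exon 19del 800, FQEA 800. Cpds from 10 mM DMSO stock, 3-fold ×10 dilution, 120 nL per well; 72 h. CTG readout; IC50 via Hill equation.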

[7] = molecular target: T6, EGFR exon 20 SVD Ins D770_N771 (Ba/F3 cells) (Homo sapiens, UniProt P00533, INS770SVD); assay: Inhibitor activity on EGFR-dependent cell growth (CellTiter-Glo, 72 h), Ba/F3 EGFR exon 20 SVD Ins; settings: read-out: BaF3 SVD IC50
T6 construct: expressed in transfected cells; host or cells: Ba/F3 (murine pro-B cells), retroviral transduction, puromycin selection, IL3-independent pool
T6 sequence (P00533 with tags, fused parts or gaps INS770SVD): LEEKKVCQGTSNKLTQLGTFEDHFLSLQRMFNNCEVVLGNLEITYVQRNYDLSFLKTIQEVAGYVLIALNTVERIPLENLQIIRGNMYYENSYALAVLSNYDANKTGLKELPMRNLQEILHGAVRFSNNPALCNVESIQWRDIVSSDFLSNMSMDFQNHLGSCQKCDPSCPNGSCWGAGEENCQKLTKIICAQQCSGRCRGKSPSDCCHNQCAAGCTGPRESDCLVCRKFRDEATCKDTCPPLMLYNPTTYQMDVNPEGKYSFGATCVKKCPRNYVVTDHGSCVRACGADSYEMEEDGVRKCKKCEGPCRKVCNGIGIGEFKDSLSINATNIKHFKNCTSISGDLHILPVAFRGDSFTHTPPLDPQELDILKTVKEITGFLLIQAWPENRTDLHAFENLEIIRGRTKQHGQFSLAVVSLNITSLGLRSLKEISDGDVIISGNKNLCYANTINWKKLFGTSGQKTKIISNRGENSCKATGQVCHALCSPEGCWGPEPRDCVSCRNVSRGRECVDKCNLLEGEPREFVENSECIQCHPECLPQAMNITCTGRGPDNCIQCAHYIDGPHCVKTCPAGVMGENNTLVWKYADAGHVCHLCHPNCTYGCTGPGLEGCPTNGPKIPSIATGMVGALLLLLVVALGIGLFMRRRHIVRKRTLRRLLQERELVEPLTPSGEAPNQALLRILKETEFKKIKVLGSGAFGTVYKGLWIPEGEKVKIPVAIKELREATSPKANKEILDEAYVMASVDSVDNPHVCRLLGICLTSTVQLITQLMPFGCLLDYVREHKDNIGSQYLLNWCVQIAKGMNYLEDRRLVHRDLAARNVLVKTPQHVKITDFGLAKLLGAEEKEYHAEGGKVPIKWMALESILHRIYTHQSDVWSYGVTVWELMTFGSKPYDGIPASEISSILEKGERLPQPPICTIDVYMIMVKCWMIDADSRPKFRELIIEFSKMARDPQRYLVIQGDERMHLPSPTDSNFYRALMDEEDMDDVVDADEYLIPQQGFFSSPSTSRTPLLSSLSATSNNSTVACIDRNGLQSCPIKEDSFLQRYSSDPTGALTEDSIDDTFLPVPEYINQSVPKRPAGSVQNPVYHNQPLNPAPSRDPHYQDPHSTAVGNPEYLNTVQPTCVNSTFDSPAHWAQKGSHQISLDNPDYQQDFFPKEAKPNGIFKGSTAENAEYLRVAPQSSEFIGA
Method in brief: as §1

Row | pIC50 [1] | pIC50 [2] | pIC50 [3] | pIC50 [4] | pIC50 [5] | pIC50 [6] | pIC50 [7] | Structure (SMILES)
2 | > 7.00 | 6.00 to 7.00 | > 7.00 | > 7.00 | > 7.00 | > 7.00 | > 7.00 | CC[C@@H]1CNC(=O)c2c1[nH]c(-c1ccnc(N)n1)c2Nc1cccc(Cl)c1OC [189a]
3 | > 7.00 | > 7.00 | > 7.00 | > 7.00 | > 7.00 | > 7.00 | > 7.00 | COc1ccc2nccc(-c3[nH]c4c(c3Nc3cccc(Cl)c3OC)C(=O)NC[C@H]4C)c2n1 [310a]
4 | 6.00 to 7.00 | < 6.00 | > 7.00 | > 7.00 | 6.00 to 7.00 | – | 6.00 to 7.00 | COCC[C@@H]1CNC(=O)c2c1[nH]c(-c1ccnc(C)n1)c2Nc1cccc(F)c1OC [453a]
5 | > 7.00 | 6.00 to 7.00 | > 7.00 | > 7.00 | – | > 7.00 | > 7.00 | COc1c(F)cccc1Nc1c(-c2ccnc3ccoc23)[nH]c2c1C(=O)NCC2 [Compound 553, 3-[(3-fluoro-2-methoxyphenyl)amino]-2-{furo[3,2-b]pyridin-7-yl}-1H,5H,6H,7H-pyrrolo[3,2-c]pyridin-4-one]
6 | > 7.00 | 6.00 to 7.00 | > 7.00 | > 7.00 | – | > 7.00 | > 7.00 | Cc1ccc2nccc(-c3[nH]c4c(c3Nc3cccc(F)c3C)C(=O)NCC4)c2n1 [Compound 810, 3-[(3-fluoro-2-methylphenyl)amino]-2-(6-methyl-1,5-naphthyridin-4-yl)-1H,5H,6H,7H-pyrrolo[3,2-c]pyridin-4-one]

Row | Structure (SMILES) | pIC50 [1] | pIC50 [2] | pIC50 [3] | pIC50 [4] | pIC50 [5] | pIC50 [6] | pIC50 [7]
7 | COc1c(Cl)cccc1Nc1c(-c2ccnc3ccc(OC4CC(F)(F)C4)nc23)[nH]c2c1C(=O)NCC2 [Compound 766, 3-[(3-chloro-2-methoxyphenyl)amino]-2-[6-(3,3-difluorocyclobutoxy)-1,5-naphthyridin-4-yl]-1H,5H,6H,7H-pyrrolo[3,2-c] pyridin-4-one] | > 7.00 | 6.00 to 7.00 | > 7.00 | > 7.00 | > 7.00 | > 7.00 | > 7.00
